In ChEMBL document CHEMBL1151974, “Sesquiterpenoids and phenylpropanoids from pericarps of Illicium oligandrum” (2009) one finds Activity data, which are given here for six molecules.

The first test has as its system SH-SY5Y. Description: Neuroprotective activity against H2O2-induced human SH-SY5Y cell damage assessed as increase in cell viability at 10 uM pretreated 2 hrs before H2O2 challenge relative to control. Format: functional.
Take `COc1ccc([C@@H](O)[C@H](C)O)cc1` (relative stereo) [ERYTHRO ANETHOLE GLYCOL]: the Activity was found to be 7.29%.
Consider `COc1ccc([C@@H]2O[C@@H]3[C@@H](O[C@H]2C)O[C@H](CO)[C@@H](O)[C@@H]3O)cc1` [OLIGANDRUMIN E], for which the Activity worked out at 6.42%.
For `C[C@@H]1[C@H](O)C[C@]23OC(=O)C[C@]12C[C@]1(O)OC[C@]3(C)[C@@H]1C` [PSEUDOMAJUCIN], the Activity was 2.83%.
Same read-out and setting: the same measure for VITAMIN E: 7.16%.

For a further test, the system named is SH-SY5Y. Description: Neuroprotective activity against H2O2-induced human SH-SY5Y cell damage assessed as increase in cell viability at 1 uM pretreated 2 hrs before H2O2 challenge relative to control. The test is classed as functional.
On to `C[C@]12COC(=O)C[C@@]3(CC(=O)[C@]1(C)O)[C@]2(O)CC[C@]3(C)O`, for which the Activity stood at 2.76%.
On the same count and under the same terms, under `C[C@@]12COC(=O)[C@]1(C)[C@@H](O)[C@]13CC(=O)O[C@@]1(C)CC[C@]23O` [ANISLACTONE B] stands 12.55%.
